US12251379B2, “Methods of inhibiting formation of alpha synuclein aggregates” (THE REGENTS OF THE UNIVERSITY OF CALIFORNIA, priority 2018, dated 2025)

Assays:
sEH = sEH (Homo sapiens (Human), UniProt P34913); details: cited from earlier work
[1] = test system: MPTP-induced neurotoxicity in the mouse SN; details: cited from earlier work
[2] = PTZ induced seizure model; Example 52 and FIG. 7 of WO 2015/148954; cited from earlier work
[3] = test system: MPTP-induced neurotoxicity in the striatum and SN; assay: MPTP-induced mouse model of PD: immunohistochemistry of DAT and TH; details: MPTP 10, 15, or 20 mg/kg ×3 IP, 2-h intervals; 7 days after injection
[4] = test system: eicosanoids metabolites in the striatum; assay: Oxylipin profiling of striatum from MPTP-treated mice; format: in vivo, mouse; details: MPTP 10 mg/kg×3 IP, 7 days after injection; mean +/− SEM
Description: Oxylipin profiling. […] Striatum was dissected from brain, and the samples were stored at −80° C. before assay. Measurement of eicosanoids was performed using the previous method (59).

[5] = test system: ER stress, oxidative stress, sEH and α-synuclein proteins in the mouse striatum; assay: Western blot analysis of mouse striatum after MPTP; format: in vivo
Description: Western blot analysis of mouse brain samples. Western blot analysis was performed as reported previously (53,56). Mice were killed by cervical dislocation and brains were rapidly removed from the skull, and the striatum of mice were dissected on ice. The tissue samples were homogenized in Laemmli lysis buffer. […] Proteins were transferred onto polyvinylidenedifluoride (PVDF) membranes using a Trans Blot Mini Cell (Bio-Rad). For immunodetection, the blots were blocked with 2% BSA in TBST (TBS+0.1% Tween-20) for 1 h at room temperature (RT), and kept with primary antibodies overnight at 4° C. […] After final three washes with TBST, bands were detected using enhanced chemiluminescence (ECL) plus the Western Blotting Detection system (GE Healthcare Bioscience). Images were captured with a ChemDoc imaging system (Bio-Rad), and the immunoreactive bands were analysis by Image Lab software.

[6] = pH 7.4; cited from earlier work

Chain of sEH (P34913 whole entry): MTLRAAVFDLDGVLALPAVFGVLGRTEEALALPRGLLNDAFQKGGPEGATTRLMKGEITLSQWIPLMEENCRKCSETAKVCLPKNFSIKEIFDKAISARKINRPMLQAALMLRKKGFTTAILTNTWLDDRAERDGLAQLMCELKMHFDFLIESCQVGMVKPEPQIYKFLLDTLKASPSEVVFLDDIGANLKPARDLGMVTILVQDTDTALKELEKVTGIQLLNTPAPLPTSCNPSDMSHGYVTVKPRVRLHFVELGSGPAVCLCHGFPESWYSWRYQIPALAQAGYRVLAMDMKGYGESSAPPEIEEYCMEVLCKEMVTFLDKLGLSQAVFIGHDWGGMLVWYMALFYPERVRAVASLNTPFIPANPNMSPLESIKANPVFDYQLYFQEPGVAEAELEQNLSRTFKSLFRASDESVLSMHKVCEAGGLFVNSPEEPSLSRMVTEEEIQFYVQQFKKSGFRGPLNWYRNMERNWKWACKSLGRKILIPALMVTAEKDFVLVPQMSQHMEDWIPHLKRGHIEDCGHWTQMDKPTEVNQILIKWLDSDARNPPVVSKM

CCCCCCCCCCCCNC(=O)NC12CC3CC(CC(C3)C1)C2 [ADU, N-Adamantyl-N′-dodecyl urea]
activity on sEH (sEH): particularly high activity

O=C(O)CCCCCCCCCCCNC(=O)NC12CC3CC(CC(C3)C1)C2 [AUDA, 12-(3-Adamantan-1-yl-ureido)dodecanoic acid]
MPTP-induced neurotoxicity, posttreatment ([1]; posttreatment): did not attenuate
MPTP-induced loss of TH-positive cells in the mouse SN, pretreatment ([1]; pretreatment): attenuated

O=C(Nc1ccc(OC(F)(F)F)c(F)c1)NC1CCN(C(=O)C2CCOCC2)CC1 [Compound 29, 1-(3-fluoro-4-(trifluoromethoxy)phenyl)-3-(1-(tetrahydro-2H-pyran-4-carbo-nyl)piperidin-4-yl)urea]
crossing of the blood-brain barrier [2]: cross the blood-brain barrier

CN1CC=C(c2ccccc2)CC1 [MPTP, 1-methyl-4-phenyl-1,2,3,6-tetrahydropyridine]
DAT and TH density in the striatum and TH-positive cell number in the SN compared with control mice [3]: significant reductions
Level of 5(6)-EpETrE in the striatum [4]: 544.908 ± 19.111
Level of 6-keto-PGF1a in the striatum [4]: 20.015 ± 1.352
Level of 8(9)-EpETrE in the striatum [4]: 19.048 ± 1.310
Level of 9(10)-EpOME in the striatum [4]: 6.641 ± 0.431
Level of 9,10,13-TriHOME in the striatum [4]: 33.635 ± 2.452
Level of 9,10-DiHOME in the striatum [4]: 1.346 ± 0.158
Level of 9,12,13-TriHOME in the striatum [4]: 59.487 ± 4.168
Level of 9-HODE in the striatum [4]: 41.360 ± 3.045
Level of 9-oxo-ODE in the striatum [4]: 46.977 ± 5.160
Level of 10(11)-EpDPE in the striatum [4]: 9.530 ± 0.829
Level of 11(12)-EpETrE in the striatum [4]: 61.583 ± 4.605
Level of 11-HETE in the striatum [4]: 114.056 ± 5.188
Level of 12(13)-EpOME in the striatum [4]: 7.073 ± 0.689
Level of 12,13-DIHOME in the striatum [4]: 8.348 ± 1.710
Level of 12-HETE in the striatum [4]: 136.621 ± 26.845
Level of 13-HODE in the striatum [4]: 58.399 ± 5.240
Level of 14(15)-EpETrE in the striatum [4]: 77.976 ± 11.479
Level of 15,16-DiHODE in the striatum [4]: 3.667 ± 0.609
Level of 15-HETE in the striatum [4]: 129.113 ± 6.703
Level of 19,20-DiHDPE in the striatum [4]: 5.310 ± 0.523
Level of EKODE in the striatum [4]: 23.007 ± 4.170
Level of PGD2 in the striatum [4]: 127.452 ± 4.968
Level of PGE2 in the striatum [4]: 13.830 ± 1.069
Level of PGF2a in the striatum [4]: 160.704 ± 7.212
Level of TXB2 in the striatum [4]: 98.406 ± 4.740
phosphorylated α-synuclein/α-synuclein ratio in the striatum compared with control mice ([5]; MPTP 10 mg/kg×3): significant increase
expression of GSH, iNOS, and SOD in the striatum ([5]; MPTP 10 mg/kg×3, 7 days after injection): alterations
sEH protein in the striatum compared with control mice ([5]; MPTP 10 mg/kg×3, three or 7 days after injections): significant increase

CC[C@H](C)C(=O)N1CCC(NC(=O)Nc2ccc(OC(F)(F)F)c(F)c2)CC1 [compound 26]
w.s. (water solubility) [6]: 1000 nM
